According to the NIST ThermoML archive (doi:10.1016/j.jct.2013.01.005):
± gives the expanded uncertainty stated by the source.

Experiment: activity coefficient (dimensionless); of the first substance listed, at infinite dilution; xn = mol fraction of the nth substance listed
Conditions: 101 kPa, Liquid, Chromatography, x1 = 0

For `CCc1ccccc1` [ethylbenzene] + CCCCCC[N+]1(C)CCCCC1.O=S(=O)([N-]S(=O)(=O)C(F)(F)F)C(F)(F)F, the activity coefficient (308.15 K) was 0.864 ± 0.055, the activity coefficient (318.15 K) was 0.894 ± 0.057 and the activity coefficient (328.15 K) was 0.909 ± 0.058. The activity coefficient (338.15 K) was 0.934 ± 0.059, the activity coefficient (348.15 K) was 0.957 ± 0.06 and the activity coefficient (358.15 K) was 0.969 ± 0.061.
Compound `c1ccccc1` [benzene] + CCCCC[N+]1(C)CCCCC1.O=S(=O)([N-]S(=O)(=O)C(F)(F)F)C(F)(F)F has an activity coefficient (308.15 K) of 0.696 ± 0.047, an activity coefficient (318.15 K) of 0.703 ± 0.047 and an activity coefficient (328.15 K) of 0.712 ± 0.047. It also gave an activity coefficient (338.15 K) of 0.721 ± 0.048, an activity coefficient (348.15 K) of 0.744 ± 0.049 and an activity coefficient (358.15 K) of 0.753 ± 0.05.
`C1CCCCCCC1` [cyclooctane] + CCCCCC[N+]1(C)CCCCC1.O=S(=O)([N-]S(=O)(=O)C(F)(F)F)C(F)(F)F showed an activity coefficient (308.15 K) of 7.57 ± 0.52, an activity coefficient (318.15 K) of 7.36 ± 0.5 and an activity coefficient (328.15 K) of 7.15 ± 0.49. For the same compound, the activity coefficient (338.15 K) was 6.87 ± 0.47, the activity coefficient (348.15 K) was 6.75 ± 0.46 and the activity coefficient (358.15 K) was 6.53 ± 0.45.
For `C=CCCCCCC` [oct-1-ene] + CCCCCC[N+]1(C)CCCCC1.O=S(=O)([N-]S(=O)(=O)C(F)(F)F)C(F)(F)F, the activity coefficient (308.15 K) was 7.72 ± 0.53, the activity coefficient (318.15 K) was 7.6 ± 0.52 and the activity coefficient (328.15 K) was 7.49 ± 0.51. For the same compound, the activity coefficient (338.15 K) was 7.37 ± 0.5, the activity coefficient (348.15 K) was 7.27 ± 0.5 and the activity coefficient (358.15 K) was 7.2 ± 0.49.
With `CCCCCO` [pentan-1-ol] + CCCCC[N+]1(C)CCCCC1.O=S(=O)([N-]S(=O)(=O)C(F)(F)F)C(F)(F)F the activity coefficient (308.15 K) was 2.5 ± 0.17, the activity coefficient (318.15 K) was 2.37 ± 0.16 and the activity coefficient (328.15 K) was 2.2 ± 0.15. It also gave an activity coefficient (338.15 K) of 2.03 ± 0.14, an activity coefficient (348.15 K) of 1.94 ± 0.13 and an activity coefficient (358.15 K) of 1.79 ± 0.12.
Compound `CCc1ccccc1` [ethylbenzene] + CCCCC[N+]1(C)CCCCC1.O=S(=O)([N-]S(=O)(=O)C(F)(F)F)C(F)(F)F has an activity coefficient (308.15 K) of 1.26 ± 0.08, an activity coefficient (318.15 K) of 1.31 ± 0.09 and an activity coefficient (328.15 K) of 1.35 ± 0.09. The activity coefficient (338.15 K) was 1.37 ± 0.09, the activity coefficient (348.15 K) was 1.42 ± 0.09 and the activity coefficient (358.15 K) was 1.43 ± 0.09.
`CCCCCC` [hexane] + CCCCCC[N+]1(C)CCCCC1.O=S(=O)([N-]S(=O)(=O)C(F)(F)F)C(F)(F)F gave an activity coefficient (308.15 K) of 7.67 ± 0.52, an activity coefficient (318.15 K) of 7.4 ± 0.5 and an activity coefficient (328.15 K) of 7.07 ± 0.48. It also gave an activity coefficient (338.15 K) of 6.85 ± 0.47, an activity coefficient (348.15 K) of 6.67 ± 0.45 and an activity coefficient (358.15 K) of 6.37 ± 0.43.
Compound `CCCCO` [butan-1-ol] + CCCCCC[N+]1(C)CCCCC1.O=S(=O)([N-]S(=O)(=O)C(F)(F)F)C(F)(F)F has an activity coefficient (308.15 K) of 2.4 ± 0.16, an activity coefficient (318.15 K) of 2.13 ± 0.14 and an activity coefficient (328.15 K) of 1.93 ± 0.13. For the same compound, the activity coefficient (338.15 K) was 1.76 ± 0.12, the activity coefficient (348.15 K) was 1.64 ± 0.11 and the activity coefficient (358.15 K) was 1.52 ± 0.1.
For `C=CCCCCC` [1-heptene] + CCCCCC[N+]1(C)CCCCC1.O=S(=O)([N-]S(=O)(=O)C(F)(F)F)C(F)(F)F, the activity coefficient (308.15 K) was 5.89 ± 0.4, the activity coefficient (318.15 K) was 5.81 ± 0.4 and the activity coefficient (328.15 K) was 5.69 ± 0.39. For the same compound, the activity coefficient (338.15 K) was 5.59 ± 0.38, the activity coefficient (348.15 K) was 5.45 ± 0.37 and the activity coefficient (358.15 K) was 5.35 ± 0.36.
With `C1CCCCC1` [cyclohexane] + CCCCC[N+]1(C)CCCCC1.O=S(=O)([N-]S(=O)(=O)C(F)(F)F)C(F)(F)F the activity coefficient (308.15 K) was 6.4 ± 0.44, the activity coefficient (318.15 K) was 5.95 ± 0.41 and the activity coefficient (328.15 K) was 5.64 ± 0.38. The activity coefficient (338.15 K) was 5.42 ± 0.37, the activity coefficient (348.15 K) was 5.13 ± 0.35 and the activity coefficient (358.15 K) was 4.99 ± 0.34.
For `CC(C)=O` [acetone] + CCCCC[N+]1(C)CCCCC1.O=S(=O)([N-]S(=O)(=O)C(F)(F)F)C(F)(F)F, the activity coefficient (308.15 K) was 0.398 ± 0.034, the activity coefficient (318.15 K) was 0.426 ± 0.035 and the activity coefficient (328.15 K) was 0.435 ± 0.035. The activity coefficient (338.15 K) was 0.441 ± 0.035, the activity coefficient (348.15 K) was 0.456 ± 0.036 and the activity coefficient (358.15 K) was 0.466 ± 0.036.
Work on `O` [water] + CCCCC[N+]1(C)CCCCC1.O=S(=O)([N-]S(=O)(=O)C(F)(F)F)C(F)(F)F yielded an activity coefficient (308.15 K) of 5.05 ± 0.34, an activity coefficient (318.15 K) of 4.19 ± 0.29 and an activity coefficient (328.15 K) of 3.7 ± 0.25. For the same compound, the activity coefficient (338.15 K) was 3.18 ± 0.22, the activity coefficient (348.15 K) was 2.78 ± 0.19 and the activity coefficient (358.15 K) was 2.44 ± 0.17.
Work on `C1CCOC1` [tetrahydrofuran] + CCCCCC[N+]1(C)CCCCC1.O=S(=O)([N-]S(=O)(=O)C(F)(F)F)C(F)(F)F yielded an activity coefficient (308.15 K) of 0.563 ± 0.04, an activity coefficient (318.15 K) of 0.579 ± 0.041 and an activity coefficient (328.15 K) of 0.594 ± 0.042. The activity coefficient (338.15 K) was 0.612 ± 0.043, the activity coefficient (348.15 K) was 0.627 ± 0.043 and the activity coefficient (358.15 K) was 0.635 ± 0.044.
With `CC(C)CC(C)(C)C` [2,2,4-trimethylpentane] + CCCCC[N+]1(C)CCCCC1.O=S(=O)([N-]S(=O)(=O)C(F)(F)F)C(F)(F)F the activity coefficient (308.15 K) was 13.4 ± 0.9, the activity coefficient (318.15 K) was 12.5 ± 0.9 and the activity coefficient (328.15 K) was 11.8 ± 0.8. For the same compound, the activity coefficient (338.15 K) was 11.4 ± 0.8, the activity coefficient (348.15 K) was 10.9 ± 0.7 and the activity coefficient (358.15 K) was 10.6 ± 0.7.
In the case of `C#CCCCC` [1-hexyne] + CCCCC[N+]1(C)CCCCC1.O=S(=O)([N-]S(=O)(=O)C(F)(F)F)C(F)(F)F, the activity coefficient (308.15 K) is reported as 2.09 ± 0.14, the activity coefficient (318.15 K) is reported as 2.12 ± 0.14 and the activity coefficient (328.15 K) is reported as 2.14 ± 0.15. It also gave an activity coefficient (338.15 K) of 2.18 ± 0.15, an activity coefficient (348.15 K) of 2.22 ± 0.15 and an activity coefficient (358.15 K) of 2.25 ± 0.15.
`Cc1ccccc1` [toluene] + CCCCCC[N+]1(C)CCCCC1.O=S(=O)([N-]S(=O)(=O)C(F)(F)F)C(F)(F)F showed an activity coefficient (308.15 K) of 0.864 ± 0.055, an activity coefficient (318.15 K) of 0.894 ± 0.057 and an activity coefficient (328.15 K) of 0.909 ± 0.058. It also gave an activity coefficient (338.15 K) of 0.934 ± 0.059, an activity coefficient (348.15 K) of 0.957 ± 0.06 and an activity coefficient (358.15 K) of 0.969 ± 0.061.
In the case of `CCCCC(C)=O` [2-hexanone] + CCCCCC[N+]1(C)CCCCC1.O=S(=O)([N-]S(=O)(=O)C(F)(F)F)C(F)(F)F, the activity coefficient (308.15 K) is reported as 0.694 ± 0.047, the activity coefficient (318.15 K) is reported as 0.706 ± 0.047 and the activity coefficient (328.15 K) is reported as 0.722 ± 0.048. It also gave an activity coefficient (338.15 K) of 0.74 ± 0.049, an activity coefficient (348.15 K) of 0.764 ± 0.05 and an activity coefficient (358.15 K) of 0.784 ± 0.051.
Work on `CCCCC(C)=O` [2-hexanone] + CCCCC[N+]1(C)CCCCC1.O=S(=O)([N-]S(=O)(=O)C(F)(F)F)C(F)(F)F yielded an activity coefficient (318.15 K) of 0.761 ± 0.05, an activity coefficient (328.15 K) of 0.779 ± 0.051 and an activity coefficient (338.15 K) of 0.792 ± 0.052. It also gave an activity coefficient (348.15 K) of 0.822 ± 0.053 and an activity coefficient (358.15 K) of 0.84 ± 0.054.
In the case of `CCCCCO` [pentan-1-ol] + CCCCCC[N+]1(C)CCCCC1.O=S(=O)([N-]S(=O)(=O)C(F)(F)F)C(F)(F)F, the activity coefficient (308.15 K) is reported as 2.44 ± 0.17, the activity coefficient (318.15 K) is reported as 2.23 ± 0.15 and the activity coefficient (328.15 K) is reported as 2.05 ± 0.14. For the same compound, the activity coefficient (338.15 K) was 1.92 ± 0.13, the activity coefficient (348.15 K) was 1.8 ± 0.12 and the activity coefficient (358.15 K) was 1.71 ± 0.11.
Work on `C#CCCCCCC` [1-octyne] + CCCCC[N+]1(C)CCCCC1.O=S(=O)([N-]S(=O)(=O)C(F)(F)F)C(F)(F)F yielded an activity coefficient (308.15 K) of 3.71 ± 0.25, an activity coefficient (318.15 K) of 3.74 ± 0.25 and an activity coefficient (328.15 K) of 3.76 ± 0.26. For the same compound, the activity coefficient (338.15 K) was 3.79 ± 0.26, the activity coefficient (348.15 K) was 3.81 ± 0.26 and the activity coefficient (358.15 K) was 3.84 ± 0.26.
`C=CCCCCC` [1-heptene] + CCCCC[N+]1(C)CCCCC1.O=S(=O)([N-]S(=O)(=O)C(F)(F)F)C(F)(F)F gave an activity coefficient (308.15 K) of 7.42 ± 0.51, an activity coefficient (318.15 K) of 7.12 ± 0.49 and an activity coefficient (328.15 K) of 6.88 ± 0.47. For the same compound, the activity coefficient (338.15 K) was 6.67 ± 0.45, the activity coefficient (348.15 K) was 6.48 ± 0.44 and the activity coefficient (358.15 K) was 6.31 ± 0.43.
`C1CCCC1` [cyclopentane] + CCCCCC[N+]1(C)CCCCC1.O=S(=O)([N-]S(=O)(=O)C(F)(F)F)C(F)(F)F gave an activity coefficient (308.15 K) of 3.72 ± 0.25, an activity coefficient (318.15 K) of 3.59 ± 0.24 and an activity coefficient (328.15 K) of 3.43 ± 0.23. For the same compound, the activity coefficient (338.15 K) was 3.34 ± 0.23, the activity coefficient (348.15 K) was 3.24 ± 0.22 and the activity coefficient (358.15 K) was 3.12 ± 0.21.
In the case of `CC(C)=O` [acetone] + CCCCCC[N+]1(C)CCCCC1.O=S(=O)([N-]S(=O)(=O)C(F)(F)F)C(F)(F)F, the activity coefficient (308.15 K) is reported as 0.421 ± 0.035, the activity coefficient (318.15 K) is reported as 0.429 ± 0.035 and the activity coefficient (328.15 K) is reported as 0.436 ± 0.035. For the same compound, the activity coefficient (338.15 K) was 0.444 ± 0.036, the activity coefficient (348.15 K) was 0.455 ± 0.036 and the activity coefficient (358.15 K) was 0.46 ± 0.036.
